Measured values published in PubChem BioAssay (NCI).
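Results reflect a 48-hour exposure of cells in 96-well plates to compound at five concentrations. The concentration for full growth arrest is given as TGI.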

Tests used:
Test in all cases: inhibition of tumour cell growth, NCI panel, 48 h
NCI-H522 lung = tested on: NCI-H522 lung
M19-MEL melanoma = tested on: M19-MEL melanoma
SW-620 colon = tested on: SW-620 colon
K-562 leukemia = tested on: K-562 leukemia
HOP-62 NSCLC = tested on: HOP-62 NSCLC
HCT-116 colon = tested on: HCT-116 colon
UO-31 renal = tested on: UO-31 renal
A498 renal = tested on: A498 renal
786-0 renal = tested on: 786-0 renal
SK-MEL-5 melanoma = tested on: SK-MEL-5 melanoma
MOLT-4 leukemia = tested on: MOLT-4 leukemia
LOX IMVI melanoma = tested on: LOX IMVI melanoma
COLO 205 colon = tested on: COLO 205 colon
U251 CNS = tested on: U251 CNS
SNB-78 CNS = tested on: SNB-78 CNS
EKVX NSCLC = tested on: EKVX NSCLC
KM12 colon = tested on: KM12 colon
HCT-15 colon = tested on: HCT-15 colon
ACHN renal = tested on: ACHN renal
DLD-1 colon = tested on: DLD-1 colon
CAKI-1 renal = tested on: CAKI-1 renal
OVCAR-5 ovarian = tested on: OVCAR-5 ovarian
SNB-75 CNS = tested on: SNB-75 CNS
M14 melanoma = tested on: M14 melanoma
LXFL 529 NSCLC = tested on: LXFL 529 NSCLC
SNB-19 CNS = tested on: SNB-19 CNS
RPMI-8226 leukemia = tested on: RPMI-8226 leukemia
SK-MEL-28 melanoma = tested on: SK-MEL-28 melanoma
OVCAR-4 ovarian = tested on: OVCAR-4 ovarian
SF-539 CNS = tested on: SF-539 CNS
SF-295 CNS = tested on: SF-295 CNS
SN12C renal = tested on: SN12C renal
OVCAR-3 ovarian = tested on: OVCAR-3 ovarian
KM20L2 colon = tested on: KM20L2 colon
UACC-62 melanoma = tested on: UACC-62 melanoma
A549 NSCLC = tested on: A549 NSCLC
HOP-92 NSCLC = tested on: HOP-92 NSCLC
HL-60(TB) leukemia = tested on: HL-60(TB) leukemia
IGROV1 ovarian = tested on: IGROV1 ovarian
HT29 colon = tested on: HT29 colon
NCI-H226 lung = tested on: NCI-H226 lung
OVCAR-8 ovarian = tested on: OVCAR-8 ovarian
XF 498 CNS = tested on: XF 498 CNS
DMS 273 small cell lung = tested on: DMS 273 small cell lung
NCI-H460 lung = tested on: NCI-H460 lung
SK-OV-3 ovarian = tested on: SK-OV-3 ovarian
NCI-H23 lung = tested on: NCI-H23 lung
TK-10 renal = tested on: TK-10 renal
DMS 114 small cell lung = tested on: DMS 114 small cell lung
RXF 393 renal = tested on: RXF 393 renal
UACC-257 melanoma = tested on: UACC-257 melanoma
MALME-3M melanoma = tested on: MALME-3M melanoma
SK-MEL-2 melanoma = tested on: SK-MEL-2 melanoma
HCC-2998 colon = tested on: HCC-2998 colon
CCRF-CEM leukemia = tested on: CCRF-CEM leukemia

In the case of `CN(N=O)C(=O)N(N)CCCCC(NC(=O)OCc1ccccc1)C(=O)OCc1ccccc1` (stereo not given), the TGI (NCI-H522 lung) was 24.9 µM, the TGI (M19-MEL melanoma) was > 100 µM and the TGI (SW-620 colon) was > 100 µM. The TGI (K-562 leukemia) was > 100 µM, the TGI (HOP-62 NSCLC) was 34.2 µM and the TGI (HCT-116 colon) was > 100 µM. The TGI (UO-31 renal) was 33.8 µM, the TGI (A498 renal) was > 100 µM and the TGI (786-0 renal) was 66.5 µM. The TGI (SK-MEL-5 melanoma) was > 100 µM, the TGI (MOLT-4 leukemia) was 52.6 µM and the TGI (LOX IMVI melanoma) was 45.8 µM. The TGI (COLO 205 colon) was 45.6 µM, the TGI (U251 CNS) was > 100 µM and the TGI (SNB-78 CNS) was 85.9 µM. For the same molecule, the TGI (EKVX NSCLC) was > 100 µM, the TGI (KM12 colon) was > 100 µM and the TGI (HCT-15 colon) was > 100 µM. The TGI (ACHN renal) was 34.2 µM, the TGI (DLD-1 colon) was > 100 µM and the TGI (CAKI-1 renal) was 72.3 µM. For the same molecule, the TGI (OVCAR-5 ovarian) was > 100 µM, the TGI (SNB-75 CNS) was 62.8 µM and the TGI (M14 melanoma) was 70.7 µM. For the same molecule, the TGI (LXFL 529 NSCLC) was > 100 µM, the TGI (SNB-19 CNS) was > 100 µM and the TGI (RPMI-8226 leukemia) was > 100 µM. The TGI (SK-MEL-28 melanoma) was > 100 µM, the TGI (OVCAR-4 ovarian) was > 100 µM and the TGI (SF-539 CNS) was 35.2 µM. The TGI (SF-295 CNS) was > 100 µM, the TGI (SN12C renal) was 46.3 µM and the TGI (OVCAR-3 ovarian) was 57 µM. The TGI (KM20L2 colon) was > 100 µM, the TGI (UACC-62 melanoma) was 44.7 µM and the TGI (A549 NSCLC) was > 100 µM. The TGI (HOP-92 NSCLC) was 34.5 µM, the TGI (HL-60(TB) leukemia) was 16.2 µM and the TGI (IGROV1 ovarian) was > 100 µM. The TGI (HT29 colon) was > 100 µM, the TGI (NCI-H226 lung) was 96.2 µM and the TGI (OVCAR-8 ovarian) was > 100 µM. The TGI (XF 498 CNS) was 32.2 µM, the TGI (DMS 273 small cell lung) was > 100 µM and the TGI (NCI-H460 lung) was > 100 µM. For the same molecule, the TGI (SK-OV-3 ovarian) was > 100 µM, the TGI (NCI-H23 lung) was 38.8 µM and the TGI (TK-10 renal) was > 100 µM. The TGI (DMS 114 small cell lung) was > 100 µM, the TGI (RXF 393 renal) was 51.6 µM and the TGI (UACC-257 melanoma) was 51.7 µM. The TGI (MALME-3M melanoma) was 95.5 µM, the TGI (SK-MEL-2 melanoma) was > 100 µM and the TGI (HCC-2998 colon) was 63.4 µM. The TGI (CCRF-CEM leukemia) was 38.5 µM.
